From PMC5503199 (Molecular microbiology, 2009)
Values joined by “and” are separate entries in the source; they are usually repeats but may differ in a detail not shown here. Equal entries are not always repeated. Where two headings read alike, the source gives them in different places.

Columns and labels:
CbcX with CbcWV [1] = biological target: T1, CbcX with CbcWV (Pseudomonas aeruginosa, UniProt Q9HTI6)
CbcWV with BetXB728a = type: cell-based, Pseudomonas syringae pv. syringae; settings: MKH13; pNcbcWV, pT-B3758; SBP BetXB728a; substrate 10 μM; single replication
[2] = tested on: cbcXWV from DC3000 in QAC transporter-deficient BT strain; type: cell-based, Pseudomonas syringae pv. tomato; settings: BT(pCbcDC3000), unlabelled competitor 0.5 mM, 10 min
[3] = tested on: cbcXWV from B728a in QAC transporter-deficient BT strain; type: cell-based, Pseudomonas syringae pv. syringae; settings: BT(pCbcB728a), unlabelled competitor 0.5 mM, 10 min
BetX with CbcWV = biological target: T2, BetX with CbcWV (Pseudomonas aeruginosa, UniProt Q9HZ04); experiment: Uptake kinetics, MKH13; settings: MKH13, pNcbcWV + pTPA3236, SBP BetX, mean (SE), n = 4
T2 sequence (Q9HZ04 26-285): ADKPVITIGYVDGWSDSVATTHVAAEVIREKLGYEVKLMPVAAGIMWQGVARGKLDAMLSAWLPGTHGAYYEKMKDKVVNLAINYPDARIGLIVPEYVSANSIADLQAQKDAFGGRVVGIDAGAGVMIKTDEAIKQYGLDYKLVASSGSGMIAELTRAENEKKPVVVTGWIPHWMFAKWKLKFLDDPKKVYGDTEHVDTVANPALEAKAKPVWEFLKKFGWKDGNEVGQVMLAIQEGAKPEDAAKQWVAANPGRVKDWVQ
T2 sequence (Q9HTI7 1-279 partner): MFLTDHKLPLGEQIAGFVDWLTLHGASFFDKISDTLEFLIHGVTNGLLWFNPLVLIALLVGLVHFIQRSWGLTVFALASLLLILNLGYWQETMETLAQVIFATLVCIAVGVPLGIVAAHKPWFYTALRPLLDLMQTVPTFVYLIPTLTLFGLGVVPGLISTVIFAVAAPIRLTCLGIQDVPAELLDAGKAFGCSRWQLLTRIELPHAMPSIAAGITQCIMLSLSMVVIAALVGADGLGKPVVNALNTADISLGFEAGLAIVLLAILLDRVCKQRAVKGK
T2 sequence (Q9HTI8 1-392 partner): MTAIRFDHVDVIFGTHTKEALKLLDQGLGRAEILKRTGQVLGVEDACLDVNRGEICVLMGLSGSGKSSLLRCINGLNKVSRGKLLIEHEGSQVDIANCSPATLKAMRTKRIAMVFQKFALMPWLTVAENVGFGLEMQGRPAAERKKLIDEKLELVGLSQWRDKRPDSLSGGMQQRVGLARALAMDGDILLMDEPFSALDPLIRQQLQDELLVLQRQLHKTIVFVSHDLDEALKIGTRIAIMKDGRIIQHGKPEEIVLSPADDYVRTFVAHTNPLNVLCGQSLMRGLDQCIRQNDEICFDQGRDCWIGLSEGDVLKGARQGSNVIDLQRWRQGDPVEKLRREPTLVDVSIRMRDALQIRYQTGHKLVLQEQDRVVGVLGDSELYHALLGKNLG

ChoXWV = biological target: T3, ChoXWV (Sinorhizobium meliloti, UniProt Q92N37); experiment: Competitive uptake, MKH13 expressing choXWV; type: cell-based; settings: pNchoXWV, SBP ChoX, [^14C]choline 10 μM, competitor 1 mM
T3 sequence (Q92N37 28-318): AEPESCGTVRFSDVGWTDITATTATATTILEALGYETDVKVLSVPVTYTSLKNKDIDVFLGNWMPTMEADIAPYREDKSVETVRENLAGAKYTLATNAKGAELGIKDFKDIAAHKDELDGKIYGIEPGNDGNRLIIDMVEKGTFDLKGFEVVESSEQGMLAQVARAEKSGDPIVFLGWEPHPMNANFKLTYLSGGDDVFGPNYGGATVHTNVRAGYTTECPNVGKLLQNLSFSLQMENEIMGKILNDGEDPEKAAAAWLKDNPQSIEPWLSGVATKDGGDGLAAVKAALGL
T3 sequence (Q92N36 1-281 partner): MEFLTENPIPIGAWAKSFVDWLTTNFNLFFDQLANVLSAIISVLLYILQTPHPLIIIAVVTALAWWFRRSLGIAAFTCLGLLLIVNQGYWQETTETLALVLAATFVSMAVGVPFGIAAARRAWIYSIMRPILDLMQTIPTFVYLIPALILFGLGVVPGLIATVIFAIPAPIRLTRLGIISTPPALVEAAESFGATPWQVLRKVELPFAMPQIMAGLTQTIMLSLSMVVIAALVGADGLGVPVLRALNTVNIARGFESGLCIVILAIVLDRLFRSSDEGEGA
T3 sequence (Q92N35 1-349 partner): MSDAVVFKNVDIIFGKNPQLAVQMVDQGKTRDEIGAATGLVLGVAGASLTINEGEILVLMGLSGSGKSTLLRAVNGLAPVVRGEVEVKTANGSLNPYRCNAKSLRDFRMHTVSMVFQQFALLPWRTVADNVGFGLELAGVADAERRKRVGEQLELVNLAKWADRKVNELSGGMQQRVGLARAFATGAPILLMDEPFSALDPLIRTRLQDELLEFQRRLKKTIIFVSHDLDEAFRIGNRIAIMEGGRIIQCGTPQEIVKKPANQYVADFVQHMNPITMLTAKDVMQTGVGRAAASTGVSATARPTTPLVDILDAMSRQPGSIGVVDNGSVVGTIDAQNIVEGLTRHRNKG

[4] = tested on: P. syringae pv. tomato DC3000; type: cell-based, Pseudomonas syringae pv. tomato; settings: for uptake rate: DC3000 grown without choline and betaine as inducers, substrate 10 μM
CbcX and CaiX with CbcWV = type: cell-based, Pseudomonas aeruginosa; settings: MKH13, pNcbcXWV, pT-PA5388, SBPs CbcX/CaiX, competitor 1 mM
CbcXWV from B728a = type: cell-based, Pseudomonas syringae pv. syringae; settings: Acella, pET-cbcB728a; 1 mM IPTG; substrate 1 mM; single colony
[5] = tested on: Cbc core transporter CbcWV; type: cell-based, Pseudomonas aeruginosa; settings: MKH13, pNcbcWV, SBP None, substrate 10 μM, single replication
CbcX with CbcWV [6] = biological target: T1, CbcX with CbcWV; experiment: Competitive uptake, MKH13 expressing cbcXWV; type: cell-based; settings: MKH13, pNcbcXWV, SBP CbcX, competitor 1 mM

Row | Structure (SMILES) | Total uptake (CbcWV with BetXB728a) | % inhibition of uptake of [^14C]substrate ([2]; [^14C]betaine 5 μM) [%] | % inhibition of uptake of [^14C]substrate ([2]; [^14C]carnitine 5 μM) [%] | % inhibition of uptake of [^14C]substrate ([2]; [^14C]choline 5 μM) [%] | % inhibition of uptake of [^14C]substrate ([3]; [^14C]betaine 5 μM) [%] | % inhibition of uptake of [^14C]substrate ([3]; [^14C]carnitine 5 μM) [%] | % inhibition of uptake of [^14C]substrate ([3]; [^14C]choline 5 μM) [%] | % inhibition of uptake of substrate by unlabelled competitor (ChoXWV) [%] | uptake rate [4] | % inhibition of uptake of substrate by unlabelled competitor (CbcX and CaiX with CbcWV; [^14C]betaine 10 μM) [%] | % inhibition of uptake of substrate by unlabelled competitor (CbcX and CaiX with CbcWV; [^14C]choline 10 μM) [%] | Total uptake (CbcXWV from B728a) | Total uptake ([5]; Plasmid 2 None) | Total uptake ([5]; pTOK2T) | % inhibition of uptake of substrate by unlabelled competitor (CbcX with CbcWV [6]; [^14C]betaine 10 μM) [%] | % inhibition of uptake of substrate by unlabelled competitor (CbcX with CbcWV [6]; [^14C]choline 10 μM) | other results
1 | C[N+](C)(C)CC(=O)O [Betaine, glycine betaine] | 11.9 nmol (mg protein)^−1 | 89 | 88 | 12 | 93 | 83 | 19 | 3 | 0.6 nmol min^−1 (mg protein)^−1 | 88 | −1 | 16.2 nmol (mg protein)^−1 | 0 nmol (mg protein)^−1 | 0 nmol (mg protein)^−1 | 87 | not inhibited | fold lower affinity of CbcX for betaine than choline (CbcX with CbcWV [1]): approximately 10 fold; maximal rate of uptake (Vmax) (CbcX with CbcWV [1]; MKH13, pNcbcXWV, SBP CbcX, mean (SE), n = 4): 11.6 (0.6) nmol min^−1 (mg protein)^−1; maximal rate of uptake (Vmax) (CbcX with CbcWV [1]; MKH13, pNcbcXWV, SBP CbcX, mean (SE), n = 4, listed as betaine): 11.6 nmol min^−1 (mg protein)^−1; maximal rate of uptake (Vmax) (BetX with CbcWV): 4.8 (0.18) nmol min^−1 (mg protein)^−1; maximal rate of uptake (Vmax) (BetX with CbcWV; listed as betaine): 4.8 nmol min^−1 (mg protein)^−1; increase of initial uptake rate after growth with inducer ([4]; DC3000 grown with 10 mM choline or betaine as inducers): three- to fourfold; % inhibition of uptake of substrate by unlabelled competitor (CbcX with CbcWV [6]; [^14C]choline 10 μM, listed as Bet): 2%
2 | C[N+](C)(C)C[C@H](O)CC(=O)[O-] [Carnitine, L-carnitine] | 0 nmol (mg protein)^−1 | −2 | 94 | −6 | 5 | 93 | 5 | 41 | – | 10 | −2 | 0 nmol (mg protein)^−1 | 0 nmol (mg protein)^−1 | 0 nmol (mg protein)^−1 | 3 | 6% | –
3 | C[N+](C)(C)CCO [Choline, choline] | 0 nmol (mg protein)^−1 | −6 | 81 | 89 | 3 | 75 | 93 | 98 | 1.8 nmol min^−1 (mg protein)^−1 | 99 | 96 | 19.2 nmol (mg protein)^−1 | 0 nmol (mg protein)^−1 | 0 nmol (mg protein)^−1 | 99 | 92% | maximal rate of uptake (Vmax) (CbcX with CbcWV [1]): 34.6 nmol min^−1 (mg protein)^−1 and 34.6 (2.2) nmol min^−1 (mg protein)^−1; increase of initial uptake rate after growth with inducer [4]: three- to fourfold
